Test results reported in paper PMC9866191, “Novel 9-Benzylaminoacridine Derivatives as Dual Inhibitors of Phosphodiesterase 5 and Topoisomerase II for the Treatment of Colon Cancer” (Molecules, 2023).

Legend:
CCD-966SK = assay: MTT cell proliferation assay, CCD-966SK; settings: CCD966SK skin fibroblast; 10 µM; 72 h MTT
CCRF-CEM = assay: NCI-60 one-dose screen; format: cell-based; settings: Homo sapiens, Leukemia panel, single dose 10^−5 M, read-out: Growth inhibition %
NCI-H322M = assay: NCI-60 one-dose screen; format: cell-based; settings: Homo sapiens, Non-small cell lung panel, single dose 10^−5 M, read-out: Growth inhibition %
Description: (§1) The newly synthesized compounds were screened for their in vitro anticancer activity at the Developmental Therapeutic Program (DTP) of the National Cancer Institute (NCI). The screening involved a panel of 60 human tumor cell lines consisting of 9 tissue types to screen for potential anti-cancer agents. The primary screening of submitted compounds was performed by testing a single dose (10^−5 M) in the full NCI-60 panel. The detailed % inhibition by the tested compounds against the 60 cell lines is shown in Tables S1–S3 in the Supporting Information.

SNB-19 = assay: NCI-60 one-dose screen; format: cell-based; settings: Homo sapiens; SNB-19, CNS Cancer panel; single dose 10^−5 M; read-out: Growth inhibition %
Description: as §1

HT29 = assay: NCI-60 one-dose screen; format: cell-based; settings: Homo sapiens, HT-29; HT29, Colon Cancer panel; single dose 10^−5 M; read-out: Growth inhibition %
Description: as §1

SNB-75 = assay: NCI-60 one-dose screen; format: cell-based; settings: Homo sapiens; SNB-75, CNS Cancer panel; single dose 10^−5 M; read-out: Growth inhibition %
Description: as §1

SF-539 = assay: NCI-60 one-dose screen; format: cell-based; settings: Homo sapiens; SF-539, CNS Cancer panel; single dose 10^−5 M; read-out: Growth inhibition %
Description: as §1

SK-MEL-28 = assay: NCI-60 one-dose screen; format: cell-based; settings: Homo sapiens; SK-MEL-28, Melanoma panel; single dose 10^−5 M; read-out: Growth inhibition %
Description: as §1

U251 = assay: NCI-60 one-dose screen; format: cell-based; settings: Homo sapiens, U-251; U251, CNS Cancer panel; single dose 10^−5 M; read-out: Growth inhibition %
Description: as §1

MDA-MB-231/ATCC = assay: NCI-60 one-dose screen; format: cell-based; settings: Homo sapiens, Breast Cancer panel, single dose 10^−5 M, read-out: Growth inhibition %
Description: as §1

K-562 = assay: NCI-60 one-dose screen; format: cell-based; settings: Homo sapiens, K562; K-562, Leukemia panel; single dose 10^−5 M; read-out: Growth inhibition %
Description: as §1

RPMI-8226 = assay: NCI-60 one-dose screen; format: cell-based; settings: Homo sapiens; RPMI-8226, Leukemia panel; single dose 10^−5 M; read-out: Growth inhibition %
Description: as §1

KM12 = assay: NCI-60 one-dose screen; format: cell-based; settings: Homo sapiens; KM12, Colon Cancer panel; single dose 10^−5 M; read-out: Growth inhibition %
Description: as §1

PC-3 = assay: NCI-60 one-dose screen; format: cell-based; settings: Homo sapiens; PC-3, Prostate Cancer panel; single dose 10^−5 M; read-out: Growth inhibition %
Description: as §1

SK-OV-3 = assay: NCI-60 one-dose screen; format: cell-based; settings: Homo sapiens; SK-OV-3, Ovarian Cancer panel; single dose 10^−5 M; read-out: Growth inhibition %
Description: as §1

NCI-H226 = assay: NCI-60 one-dose screen; format: cell-based; settings: Homo sapiens; NCI-H226, Non-small cell lung panel; single dose 10^−5 M; read-out: Growth inhibition %
Description: as §1

MDA-MB-468 = assay: NCI-60 one-dose screen; format: cell-based; settings: Homo sapiens; MDA-MB-468, Breast Cancer panel; single dose 10^−5 M; read-out: Growth inhibition %
Description: as §1

BT-549 = assay: NCI-60 one-dose screen; format: cell-based; settings: Homo sapiens; BT-549, Breast Cancer panel; single dose 10^−5 M; read-out: Growth inhibition %
Description: as §1

SK-MEL-2 = assay: NCI-60 one-dose screen; format: cell-based; settings: Homo sapiens; SK-MEL-2, Melanoma panel; single dose 10^−5 M; read-out: Growth inhibition %
Description: as §1

ACHN = assay: NCI-60 one-dose screen; format: cell-based; settings: Homo sapiens, Renal Cancer panel, single dose 10^−5 M, read-out: Growth inhibition %
Description: as §1

DU-145 = assay: NCI-60 one-dose screen; format: cell-based; settings: Homo sapiens; DU-145, Prostate Cancer panel; single dose 10^−5 M; read-out: Growth inhibition %
Description: as §1

NCI-H460 = assay: NCI-60 one-dose screen; format: cell-based; settings: Homo sapiens; NCI-H460, Non-small cell lung panel; single dose 10^−5 M; read-out: Growth inhibition %
Description: as §1

RXF 393 = assay: NCI-60 one-dose screen; format: cell-based; settings: Homo sapiens; RXF 393, Renal Cancer panel; single dose 10^−5 M; read-out: Growth inhibition %
Description: as §1

SW-620 = assay: NCI-60 one-dose screen; format: cell-based; settings: Homo sapiens; SW-620, Colon Cancer panel; single dose 10^−5 M; read-out: Growth inhibition %
Description: as §1

LOX IMVI = assay: NCI-60 one-dose screen; format: cell-based; settings: Homo sapiens, Melanoma panel, single dose 10^−5 M, read-out: Growth inhibition %
PDE5A = biological target: T1, PDE5A (Homo sapiens, UniProt O76074); assay: Phosphodiesterase 5 HTRF cGMP assay; format: biochemical; settings: for IC50: means ± S.D. (n = 4), read-out: PDE5 IC50; for inhibition at 10 µM: read-out: PDE5 % Inhibition at 10 μM
T1 construct: purchased BPS Bioscience, San Diego, CA, USA
Description: All the synthesized acridine derivatives were tested for their in vitro ability to inhibit PDE5A at a screening dose of 10 µM.
The enzyme activities of phosphodiesterase 5 (PDE5) were measured using an HTRF cGMP assay kit (Cisbio, Codolet, France). […] Afterward, the HTRF reagent (cGMP-d2 and anti-cGMP-cryptate) was added for 1 h at 25 °C, and PDE activity was assayed on an HTRF reader (Tecan Infinite F200 Pro).

[1] = tested on: panel of 60 human tumor cell lines; assay: NCI 60-cell line one-dose screen (mean); format: cell-based; settings: mean of the 60 cell lines, single dose 10^−5 M, read-out: Mean % Growth Inhibition
Description: as §1

IGROV1 = assay: NCI-60 one-dose screen; format: cell-based; settings: Homo sapiens, IGROV-1; IGROV1, Ovarian Cancer panel; single dose 10^−5 M; read-out: Growth inhibition %

| SMILES | % Inhibition at 10 µM (CCD-966SK) | inhibition at 10 µM (CCRF-CEM) | inhibition at 10 µM (NCI-H322M) | inhibition at 10 µM (SNB-19) | inhibition at 10 µM (HT29) | inhibition at 10 µM (SNB-75) | inhibition at 10 µM (SF-539) | inhibition at 10 µM (SK-MEL-28) | inhibition at 10 µM (U251) | inhibition at 10 µM (MDA-MB-231/ATCC) | inhibition at 10 µM (K-562) | inhibition at 10 µM (RPMI-8226) | inhibition at 10 µM (KM12) | inhibition at 10 µM (PC-3) | inhibition at 10 µM (SK-OV-3) | inhibition at 10 µM (NCI-H226) | inhibition at 10 µM (MDA-MB-468) | inhibition at 10 µM (BT-549) | inhibition at 10 µM (SK-MEL-2) | inhibition at 10 µM (ACHN) | further results |
| --- | --- | --- | --- | --- | --- | --- | --- | --- | --- | --- | --- | --- | --- | --- | --- | --- | --- | --- | --- | --- | --- |
| Clc1ccc(CNc2c3ccccc3nc3ccccc23)cc1 [Compound 13, Acridin-9-yl-(4-chlorobenzyl)-amine] | 2.73 ± 4.11% | 69.8% | 45.9% | 56.9% | 85% | 31.6% | 69.7% | 19.7% | 53.8% | 45.2% | 95.7% | 92% | 64.4% | 61.3% | 40% | 24.5% | 70.4% | 29.1% | 27.6% | 77.2% | inhibition at 10 µM (DU-145): 45.2%; inhibition at 10 µM (NCI-H460): 83.6%; inhibition at 10 µM (RXF 393): 70.3%; inhibition at 10 µM (SW-620): 69%; inhibition at 10 µM (LOX IMVI): 77%; IC50 (PDE5A): > 10 µM; inhibition at 10 µM (PDE5A): 45.3 ± 3.99%; inhibition at 10 µM [1]: 59.4%; inhibition at 10 µM (IGROV1): 68.3% |
| c1coc(CNc2c3ccccc3nc3ccccc23)c1 [Compound 14, Acridin-9-yl-furan-2-ylmethyl-amine] | 33.89 ± 0.85% | 42.9% | 35% | 37.2% | 64.9% | 18.5% | 34.1% | 2.28% | 34.9% | 39.5% | 55.3% | 43.4% | 14.5% | 33% | 29.1% | 37.1% | 70.7% | 2.59% | -1.22% | 73.8% | inhibition at 10 µM (DU-145): 24%; inhibition at 10 µM (NCI-H460): 43.5%; inhibition at 10 µM (RXF 393): 38.5%; inhibition at 10 µM (SW-620): 57.7%; inhibition at 10 µM (LOX IMVI): 62.9%; IC50 (PDE5A): 7.43 ± 2.69 µM; inhibition at 10 µM (PDE5A): 56.5 ± 7.38%; inhibition at 10 µM [1]: 38.4%; inhibition at 10 µM (IGROV1): 38.1% |
| COc1cccc(CNc2c3ccccc3nc3ccccc23)c1OC [Compound 16, Acridin-9-yl-(2,3-dimethoxybenzyl)-amine] | 29.78 ± 2.20% | 60.5% | 58.4% | 64.5% | 85.6% | 32% | 81.1% | 33.9% | 65.5% | 58.1% | 84.5% | 83% | 47.6% | 62.4% | 34% | 48.4% | 98.9% | 40.3% | 20.8% | 78.9% | inhibition at 10 µM (DU-145): 58.2%; inhibition at 10 µM (NCI-H460): 88.4%; inhibition at 10 µM (RXF 393): 70.1%; inhibition at 10 µM (SW-620): 74.6%; inhibition at 10 µM (LOX IMVI): 87%; IC50 (PDE5A): > 10 µM; inhibition at 10 µM (PDE5A): 36.7 ± 8.14%; inhibition at 10 µM [1]: 63.9%; inhibition at 10 µM (IGROV1): 76.8% |
